Data: publication PMC11050952 (Marine Drugs, 2024)
Values joined by “and” are separate entries in the source; they are usually repeats but may differ in a detail not shown here. Equal values may be shown once. “Also recorded” adds a separate entry of the source. Read-outs that look alike come from different tables or passages of the source.

Experiments:
[1] = tested on: Neuro-2a cells; conditions: cited from earlier work
[2] = tested on: Nav currents in Neuro-2a cells (voltage-gated sodium channels, VGSCs); assay type: cell-based, murine
[3] = read-out: IC50 (inhibition of Nav currents)

In the case of `C[C@@H]1C[C@@H]2[C@@H](O)N=C(N)N[C@]23[C@H](O)C(=O)O[C@H]1[C@H]3O` [5,6,11-trideoxyTTX], the “Toxicity equivalency factor (TEF)” value [1] is listed as 0.011.

`CCN(CC)CC(=O)Nc1c(C)cccc1C` [Lidocaine, lidocaine] showed an IC50 [2, 3] of 717000 nM.

In the case of `NC1=N[C@H](O)[C@H]2[C@H]3O[C@]4(O)O[C@@H]([C@@H](O)[C@@]2(N1)[C@@H]4O)[C@]3(O)CO` [TTX, Tetrodotoxin], the “Hill Slope” value [2] is reported as 0.997 ± 0.068 and 0.910 ± 0.120 and 1.167 ± 0.204 and 0.801 ± 0.149 and 1.089 ± 0.097, the “Reversibility of Nav current blockage” value [2] is reported as “could be reversed” and the “TTX concentration giving 20% blockade (minimum detectable blockade)” value [2] is reported as 0.5 ng/mL. For the same compound, the “Inhibition of Nav currents” value ([2]; 0.1 µM) was “completely inhibited; also recorded: complete inhibitions”, the IC50 ([2]; read-out: IC50 (blockade of Nav currents)) was 6.4 nM and the IC50 ([2]; read-out: IC50 Value) was 4.93 nM and 5.02 nM and 5.12 nM and 4.26 nM and 6.38 nM.

For `CCCCNc1ccc(C(=O)OCCN(C)C)cc1` [tetracaine], the IC50 [2, 3] was 22500 nM.
